Experiments:
[1] = system: green foxtail; assay: Test Example 4: herbicidal effect by soil treatment (Table 19, symbol G); type: in vivo, green foxtail (Setaria viridis); conditions: amount of applied herbicide 320 g/ha
How it was run: (§1)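 Scoring uses the grading scale of an earlier test, three weeks post-application. Treatment consists of spraying a diluted emulsion formulation across the surface of sterilized diluvial soil in which seeds are buried near 1.5 cm deep; boxes are kept in a greenhouse between 25° C. and 30° C.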

[2] = system: Japanese bulrush; assay: Test Example 2: herbicidal activity, application during weed generation under submerged conditions (Table 17, symbol B); type: in vivo, Japanese bulrush (Schoenoplectus juncoides); conditions: AAH 320 g/ha; application during weed generation, submerged conditions
How it was run: (§2)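 3-wk visual-criteria score after one water-surface dose. Emulsion formulation, water-diluted to set rate; applied at 1–2 leaf stage; alluvial soil, 4 cm standing water; seeds co-sown; greenhouse 25–30° C.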

[3] = system: Italian ryegrass; assay: Test Example 4: herbicidal effect by soil treatment (Table 19, symbol K); type: in vivo, Italian ryegrass (Lolium multiflorum); conditions: amount of applied herbicide 320 g/ha
How it was run: as §1

[4] = system: southern crabgrass; assay: Test Example 4: herbicidal effect by soil treatment (Table 19, symbol F); type: in vivo, southern crabgrass (Digitaria ciliaris); conditions: amount of applied herbicide 320 g/ha
How it was run: as §1

[5] = system: windgrass; assay: Test Example 5: herbicidal effect by foliage application, plastic box (Table 20, symbol L); type: in vivo, windgrass (Apera spica-venti); conditions: foliage application, 320 g/ha, evaluated three weeks after application
How it was run: (§3)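 Post-emergence foliar test in sterilized diluvial soil. Compound applied as water-diluted emulsion at a predetermined rate to 14-day-old plants; evaluation at three weeks.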

[6] = system: Italian ryegrass; assay: Test Example 5: herbicidal effect by foliage application, plastic box (Table 20, symbol K); type: in vivo, Italian ryegrass (Lolium multiflorum); conditions: foliage application, 320 g/ha, evaluated three weeks after application
How it was run: as §3

[7] = system: wild oat; assay: Test Example 4: herbicidal effect by soil treatment (Table 19, symbol I); type: in vivo, wild oat (Avena fatua); conditions: amount of applied herbicide 320 g/ha
How it was run: as §1

[8] = system: barnyard grass; assay: Test Example 5: herbicidal effect by foliage application, plastic box (Table 20, symbol H); type: in vivo, barnyard grass (Echinochloa crus-galli); conditions: foliage application, 320 g/ha, evaluated three weeks after application
How it was run: as §3

[9] = system: barnyard grass; assay: Test Example 3: herbicidal effect by foliage application, Wagner pot (Table 18, symbol H); type: in vivo, barnyard grass (Echinochloa crus-galli); conditions: amount of applied herbicide 320 g/ha
How it was run: (§4)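 Plants were sown in alluvial soil held under 0.1–0.5 cm standing water and grown 14 days in a greenhouse at 25–30 °C. An emulsifiable formulation, water-diluted to the set dose, was then sprayed onto the foliage, and effects were scored three weeks later using previously defined criteria.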

[10] = system: wild oat; assay: Test Example 5: herbicidal effect by foliage application, plastic box (Table 20, symbol I); type: in vivo, wild oat (Avena fatua); conditions: foliage application, 320 g/ha, evaluated three weeks after application
How it was run: as §3

[11] = system: lambsquarters; assay: Test Example 5: herbicidal effect by foliage application, plastic box (Table 20, symbol O); type: in vivo, lambsquarters (Chenopodium album); conditions: foliage application, 320 g/ha, evaluated three weeks after application
How it was run: as §3

[12] = system: blackgrass; assay: Test Example 5: herbicidal effect by foliage application, plastic box (Table 20, symbol J); type: in vivo, blackgrass (Alopecurus myosuroides); conditions: foliage application, 320 g/ha, evaluated three weeks after application
How it was run: as §3

[13] = system: velvetleaf; assay: Test Example 4: herbicidal effect by soil treatment (Table 19, symbol M); type: in vivo, velvetleaf (Abutilon theophrasti); conditions: amount of applied herbicide 320 g/ha
How it was run: as §1

[14] = system: late watergrass; assay: Test Example 2: herbicidal activity, application during weed generation under submerged conditions (Table 17, symbol A); type: in vivo, late watergrass (Echinochloa oryzicola); conditions: AAH 320 g/ha; application during weed generation, submerged conditions
How it was run: as §2

[15] = system: barnyard grass; assay: Test Example 4: herbicidal effect by soil treatment (Table 19, symbol H); type: in vivo, barnyard grass (Echinochloa crus-galli); conditions: amount of applied herbicide 320 g/ha
How it was run: as §1

[16] = system: chickweed; assay: Test Example 4: herbicidal effect by soil treatment (Table 19, symbol P); type: in vivo, common chickweed (Stellaria media); conditions: amount of applied herbicide 320 g/ha
How it was run: as §1

[17] = system: lambsquarters; assay: Test Example 4: herbicidal effect by soil treatment (Table 19, symbol O); type: in vivo, lambsquarters (Chenopodium album); conditions: amount of applied herbicide 320 g/ha
How it was run: as §1

[18] = system: persian speedwell; assay: Test Example 5: herbicidal effect by foliage application, plastic box (Table 20, symbol R); type: in vivo, Persian speedwell (Veronica persica); conditions: foliage application, 320 g/ha, evaluated three weeks after application
How it was run: as §3

[19] = system: southern crabgrass; assay: Test Example 5: herbicidal effect by foliage application, plastic box (Table 20, symbol F); type: in vivo, southern crabgrass (Digitaria ciliaris); conditions: foliage application, 320 g/ha, evaluated three weeks after application
How it was run: as §3

[20] = system: rice flat sedge; assay: Test Example 3: herbicidal effect by foliage application, Wagner pot (Table 18, symbol E); type: in vivo, rice flat sedge (Cyperus iria); conditions: amount of applied herbicide 320 g/ha
How it was run: as §4

[21] = system: redroot pigweed; assay: Test Example 4: herbicidal effect by soil treatment (Table 19, symbol N); type: in vivo, redroot pigweed (Amaranthus retroflexus); conditions: amount of applied herbicide 320 g/ha
How it was run: as §1

[22] = system: redroot pigweed; assay: Test Example 5: herbicidal effect by foliage application, plastic box (Table 20, symbol N); type: in vivo, redroot pigweed (Amaranthus retroflexus); conditions: foliage application, 320 g/ha, evaluated three weeks after application
How it was run: as §3

Row | SMILES | G: green foxtail, herbicidal effect rating [1] | herbicidal effect rating, B: Japanese bulrush [2] | K: Italian ryegrass, herbicidal effect rating [3] | F: southern crabgrass, herbicidal effect rating [4] | herbicidal effect on L: windgrass (criteria 0-5) [5] | herbicidal effect on K: Italian ryegrass (criteria 0-5) [6] | I: wild oat, herbicidal effect rating [7] | herbicidal effect on H: barnyard grass (criteria 0-5) [8] | herbicidal effect on H: barnyard grass [9] | herbicidal effect on I: wild oat (criteria 0-5) [10] | herbicidal effect on O: lambsquarters (criteria 0-5) [11] | herbicidal effect on J: blackgrass (criteria 0-5) [12] | M: velvetleaf, herbicidal effect rating [13] | herbicidal effect rating, A: late watergrass [14] | H: barnyard grass, herbicidal effect rating [15] | P: chickweed, herbicidal effect rating [16] | O: lambsquarters, herbicidal effect rating [17] | herbicidal effect on R: persian speedwell (criteria 0-5) [18] | herbicidal effect on F: southern crabgrass (criteria 0-5) [19] | herbicidal effect on E: rice flat sedge [20] | also measured
1 | CCCC(=O)Oc1c(C)nn(C)c(=O)c1-c1c(-c2ccccc2)sc2ccc(F)cc12 [2-198] | 5 (Herbicidal rate of 90% or more (almost completely withered)) | 3 (Herbicidal rate of 40% or more and less than 70%) | 4 (Herbicidal rate of 70% or more and less than 90%) | 5 (Herbicidal rate of 90% or more (almost completely withered)) | 4 (Herbicidal rate of 70% or more and less than 90%) | 5 (Herbicidal rate of 90% or more (almost completely withered)) | 4 (Herbicidal rate of 70% or more and less than 90%) | 3 (Herbicidal rate of 40% or more and less than 70%) | 5 (Herbicidal rate of 90% or more (almost completely withered)) | 4 (Herbicidal rate of 70% or more and less than 90%) | 5 (Herbicidal rate of 90% or more (almost completely withered)) | 4 (Herbicidal rate of 70% or more and less than 90%) | 3 (Herbicidal rate of 40% or more and less than 70%) | 2 (Herbicidal rate of 20% or more and less than 40%) | 4 (Herbicidal rate of 70% or more and less than 90%) | 4 (Herbicidal rate of 70% or more and less than 90%) | 4 (Herbicidal rate of 70% or more and less than 90%) | 5 (Herbicidal rate of 90% or more (almost completely withered)) | 5 (Herbicidal rate of 90% or more (almost completely withered)) | 5 (Herbicidal rate of 90% or more (almost completely withered)) | N: redroot pigweed, herbicidal effect rating [21]: 5 (Herbicidal rate of 90% or more (almost completely withered)); herbicidal effect on N: redroot pigweed (criteria 0-5) [22]: 5 (Herbicidal rate of 90% or more (almost completely withered))
2 | Cc1nn(C)c(=O)c(-c2c(-c3ccccc3F)sc3ccc(F)cc23)c1O [2-199] | 4 (Herbicidal rate of 70% or more and less than 90%) | 2 (Herbicidal rate of 20% or more and less than 40%) | 3 (Herbicidal rate of 40% or more and less than 70%) | 2 (Herbicidal rate of 20% or more and less than 40%) | 0 (Herbicidal rate of 5% or less (almost no effect)) | 4 (Herbicidal rate of 70% or more and less than 90%) | 0 (Herbicidal rate of 5% or less (almost no effect)) | 3 (Herbicidal rate of 40% or more and less than 70%) | 5 (Herbicidal rate of 90% or more (almost completely withered)) | 1 (Herbicidal rate of 5% or more and less than 20%) | 5 (Herbicidal rate of 90% or more (almost completely withered)) | 3 (Herbicidal rate of 40% or more and less than 70%) | 1 (Herbicidal rate of 5% or more and less than 20%) | 0 (Herbicidal rate of 5% or less (almost no effect)) | 4 (Herbicidal rate of 70% or more and less than 90%) | 2 (Herbicidal rate of 20% or more and less than 40%) | 4 (Herbicidal rate of 70% or more and less than 90%) | 5 (Herbicidal rate of 90% or more (almost completely withered)) | 4 (Herbicidal rate of 70% or more and less than 90%) | 5 (Herbicidal rate of 90% or more (almost completely withered)) | N: redroot pigweed, herbicidal effect rating [21]: 4 (Herbicidal rate of 70% or more and less than 90%); herbicidal effect on N: redroot pigweed (criteria 0-5) [22]: 5 (Herbicidal rate of 90% or more (almost completely withered))
3 | Cc1nn(C)c(=O)c(-c2c(-c3ccc(Br)cc3)sc3ccc(F)cc23)c1O [2-205] | 5 (Herbicidal rate of 90% or more (almost completely withered)) | 3 (Herbicidal rate of 40% or more and less than 70%) | 5 (Herbicidal rate of 90% or more (almost completely withered)) | 5 (Herbicidal rate of 90% or more (almost completely withered)) | 5 (Herbicidal rate of 90% or more (almost completely withered)) | 5 (Herbicidal rate of 90% or more (almost completely withered)) | 1 (Herbicidal rate of 5% or more and less than 20%) | 5 (Herbicidal rate of 90% or more (almost completely withered)) | 5 (Herbicidal rate of 90% or more (almost completely withered)) | 4 (Herbicidal rate of 70% or more and less than 90%) | 5 (Herbicidal rate of 90% or more (almost completely withered)) | 4 (Herbicidal rate of 70% or more and less than 90%) | 2 (Herbicidal rate of 20% or more and less than 40%) | 2 (Herbicidal rate of 20% or more and less than 40%) | 4 (Herbicidal rate of 70% or more and less than 90%) | 3 (Herbicidal rate of 40% or more and less than 70%) | 5 (Herbicidal rate of 90% or more (almost completely withered)) | 5 (Herbicidal rate of 90% or more (almost completely withered)) | 5 (Herbicidal rate of 90% or more (almost completely withered)) | 5 (Herbicidal rate of 90% or more (almost completely withered)) | N: redroot pigweed, herbicidal effect rating [21]: 5 (Herbicidal rate of 90% or more (almost completely withered)); herbicidal effect on N: redroot pigweed (criteria 0-5) [22]: 5 (Herbicidal rate of 90% or more (almost completely withered))
